According to patent US20100267561A1, “HERBICIDAL PYRIDAZINONE DERIVATIVES” (priority 2007, published 2010):

Tests used:
Experiment in all cases: Test B pre-/postemergence plant response
Format in all cases: in vivo
[1] = tested on: cocklebur (Xanthium strumarium); settings: for Plant response rating, Cocklebur: Postemergence
Outline: (§1)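 Seeds were sown and sprayed preemergence, while plants at 2 to 18 cm (1- to 4-leaf stage) got postemergence sprays. Compounds were formulated in a non-phytotoxic solvent mixture with surfactant. After 13 to 15 days in a greenhouse, injury was rated visually against untreated controls, 0 (no effect) to 100 (complete control).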

[2] = tested on: velvetleaf (Abutilon theophrasti); settings: for Velvetleaf plant response rating: postemergence, 0-100 scale; for Plant response rating, Velvetleaf: Postemergence
Outline: as §1

[3] = tested on: johnsongrass (Sorghum halepense); settings: for Johnsongrass plant response rating: postemergence, 0-100 scale; for Plant response rating, Johnsongrass: Postemergence
Outline: as §1

[4] = tested on: Italian ryegrass (Lolium multiflorum); settings: for Ryegrass, Italian plant response rating: postemergence, 0-100 scale; for Plant response rating, Ryegrass, Italian: Postemergence
Outline: as §1

[5] = tested on: wheat (Triticum aestivum); settings: for Wheat plant response rating: postemergence, 0-100 scale; for Plant response rating, Wheat: Postemergence
Outline: as §1

[6] = tested on: common ragweed (Ambrosia elation); settings: for Ragweed plant response rating: postemergence, 0-100 scale; for Plant response rating, Ragweed: Postemergence
Outline: as §1

[7] = tested on: goosegrass (Eleusine indica); settings: for Goosegrass plant response rating: postemergence, 0-100 scale; for Plant response rating, Goosegrass: Postemergence
Outline: as §1

[8] = tested on: surinam grass (Brachiaria decumbens); settings: for Surinam Grass plant response rating: postemergence, 0-100 scale; for Plant response rating, Surinam Grass: Postemergence
Outline: as §1

[9] = tested on: kochia (Kochia scoparia); settings: for Kochia plant response rating: postemergence, 0-100 scale; for Plant response rating, Kochia: Postemergence
Outline: as §1

[10] = tested on: lambsquarters (Chenopodium album); settings: for Lambsquarters plant response rating: postemergence, 0-100 scale; for Plant response rating, Lambsquarters: Postemergence
Outline: as §1

[11] = tested on: soybean (Glycine max); settings: for Soybean plant response rating: postemergence, 0-100 scale; for Plant response rating, Soybean: Postemergence
Outline: as §1

[12] = tested on: morningglory (Ipomoea coccinea); settings: for Morningglory plant response rating: postemergence, 0-100 scale; for Plant response rating, Morningglory: Postemergence
Outline: as §1

[13] = tested on: bermudagrass (Cynodon dactylon); settings: for Plant response rating, Bermudagrass: Postemergence
Outline: as §1

[14] = 8 g ai/ha, postemergence, 0-100 scale
[15] = 62 g ai/ha, scale 0 to 100, 0 no effect, 100 complete control

## COCc1cc(-c2ccc(Br)cc2)nn1-c1c(O)cnn(C)c1=O [Compound 68]
[1]; [14]
  Cocklebur plant response rating: 0
[1]; 16 g ai/ha, scale 0 to 100
  Plant response rating, Cocklebur: 0
[1]; 31 g ai/ha, scale 0 to 100
  Plant response rating, Cocklebur: 0
[1]; [15]
  Plant response rating, Cocklebur: 0
[2]; 8 g ai/ha
  Velvetleaf plant response rating: 0
[2]; 16 g ai/ha
  Velvetleaf plant response rating: 0
[2]; 31 g ai/ha, scale 0 to 100
  Plant response rating, Velvetleaf: 0
[2]; [15]
  Plant response rating, Velvetleaf: 0
[3]; 8 g ai/ha
  Johnsongrass plant response rating: 0
[3]; 16 g ai/ha
  Johnsongrass plant response rating: 0
[3]; 31 g ai/ha, scale 0 to 100
  Plant response rating, Johnsongrass: 0
[3]; [15]
  Plant response rating, Johnsongrass: 30
[4]; 8 g ai/ha
  Ryegrass, Italian plant response rating: 0
[4]; 16 g ai/ha
  Ryegrass, Italian plant response rating: 10
[4]; 31 g ai/ha, scale 0 to 100
  Plant response rating, Ryegrass, Italian: 80
[4]; [15]
  Plant response rating, Ryegrass, Italian: 95
[5]; 8 g ai/ha
  Wheat plant response rating: 0
[5]; 16 g ai/ha
  Wheat plant response rating: 0
[5]; 31 g ai/ha, scale 0 to 100
  Plant response rating, Wheat: 0
[5]; [15]
  Plant response rating, Wheat: 0
[6]; 8 g ai/ha
  Ragweed plant response rating: 0
[6]; 16 g ai/ha
  Ragweed plant response rating: 0
[6]; 31 g ai/ha, scale 0 to 100
  Plant response rating, Ragweed: 0
[6]; [15]
  Plant response rating, Ragweed: 0
[7]; 8 g ai/ha
  Goosegrass plant response rating: 0
[7]; 16 g ai/ha
  Goosegrass plant response rating: 0
[7]; 31 g ai/ha, scale 0 to 100
  Plant response rating, Goosegrass: 0
[7]; [15]
  Plant response rating, Goosegrass: 5
[8]; 8 g ai/ha
  Surinam Grass plant response rating: 35
[8]; 16 g ai/ha
  Surinam Grass plant response rating: 35
[8]; 31 g ai/ha, scale 0 to 100
  Plant response rating, Surinam Grass: 80
[8]; [15]
  Plant response rating, Surinam Grass: 80
[9]; 8 g ai/ha
  Kochia plant response rating: 0
[9]; 16 g ai/ha
  Kochia plant response rating: 0
[9]; 31 g ai/ha, scale 0 to 100
  Plant response rating, Kochia: 0
[9]; [15]
  Plant response rating, Kochia: 0
[10]; 8 g ai/ha
  Lambsquarters plant response rating: 0
[10]; 16 g ai/ha
  Lambsquarters plant response rating: 0
[10]; 31 g ai/ha, scale 0 to 100
  Plant response rating, Lambsquarters: 0
[10]; [15]
  Plant response rating, Lambsquarters: 0
[11]; 8 g ai/ha
  Soybean plant response rating: 0
[11]; 16 g ai/ha
  Soybean plant response rating: 0
[11]; 31 g ai/ha, scale 0 to 100
  Plant response rating, Soybean: 0
[11]; [15]
  Plant response rating, Soybean: 0
[12]; 8 g ai/ha
  Morningglory plant response rating: 0
[12]; 16 g ai/ha
  Morningglory plant response rating: 0
[12]; 31 g ai/ha, scale 0 to 100
  Plant response rating, Morningglory: 0
[12]; [15]
  Plant response rating, Morningglory: 0
[13]; [14]
  Bermudagrass plant response rating: 0
[13]; 16 g ai/ha, scale 0 to 100
  Plant response rating, Bermudagrass: 0
[13]; 31 g ai/ha, scale 0 to 100
  Plant response rating, Bermudagrass: 0
[13]; [15]
  Plant response rating, Bermudagrass: 0
